Measurements taken from patent US7576175B2, “Alpha-4 beta-1 integrin ligands for imaging and therapy” (The Regents of the University of California, priority 2004, dated 2009).
Like-named read-outs stand apart in the source and are kept apart here. Numbered stars: 1 amine (or outer) side, 2 acyl side, 3 side chain; on linkers, the order of the positions; unused ones are H or OH. Square brackets hold non-standard residues; d marks the D form. Peptide text beside a SMILES is read from it. * marks the point of attachment. Acryloyl(3-(3-pyridyl),E) = O=C(/C=C/c1cccnc1)*; dBpa = N[C@H](Cc1ccc(C(=O)c2ccccc2)cc1)C(=O)O; d2Nal = N[C@H](Cc1ccc2ccccc2c1)C(=O)O; Ala(cPr) = N[C@@H](CC1CC1)C(=O)O; Hyp = O=C(O)[C@@H]1C[C@@H](O)CN1; X1 = O=C(Cc1ccc(N[*:1])cc1)[*:2]; d3Pal = N[C@H](Cc1cccnc1)C(=O)O; Aad = N[C@@H](CCCC(=O)O)C(=O)O; Cha = N[C@@H](CC1CCCCC1)C(=O)O; NH(2-Me-phenyl) = Cc1ccccc1N*; Chg = N[C@H](C(=O)O)C1CCCCC1; Nle = CCCC[C@H](N)C(=O)O; Ac5c = NC1(C(=O)O)CCCC1; Ac3c = NC1(C(=O)O)CC1; CO = O=C([*:1])[*:2]

Columns and labels:
[1] = target: T1, α4β1 integrin (Homo sapiens, UniProt P05556+P13612); experiment: Cell-based α4β1-mediated adhesion assay: inhibition of Jurkat cell adhesion to immobilized CS-1 peptide (IC50)
T1 construct: screened against live Jurkat cells (α4β1 integrin-positive); endogenous in cells; host or cells: Jurkat T-leukemia cells
T1 sequence (P13612 34-1032): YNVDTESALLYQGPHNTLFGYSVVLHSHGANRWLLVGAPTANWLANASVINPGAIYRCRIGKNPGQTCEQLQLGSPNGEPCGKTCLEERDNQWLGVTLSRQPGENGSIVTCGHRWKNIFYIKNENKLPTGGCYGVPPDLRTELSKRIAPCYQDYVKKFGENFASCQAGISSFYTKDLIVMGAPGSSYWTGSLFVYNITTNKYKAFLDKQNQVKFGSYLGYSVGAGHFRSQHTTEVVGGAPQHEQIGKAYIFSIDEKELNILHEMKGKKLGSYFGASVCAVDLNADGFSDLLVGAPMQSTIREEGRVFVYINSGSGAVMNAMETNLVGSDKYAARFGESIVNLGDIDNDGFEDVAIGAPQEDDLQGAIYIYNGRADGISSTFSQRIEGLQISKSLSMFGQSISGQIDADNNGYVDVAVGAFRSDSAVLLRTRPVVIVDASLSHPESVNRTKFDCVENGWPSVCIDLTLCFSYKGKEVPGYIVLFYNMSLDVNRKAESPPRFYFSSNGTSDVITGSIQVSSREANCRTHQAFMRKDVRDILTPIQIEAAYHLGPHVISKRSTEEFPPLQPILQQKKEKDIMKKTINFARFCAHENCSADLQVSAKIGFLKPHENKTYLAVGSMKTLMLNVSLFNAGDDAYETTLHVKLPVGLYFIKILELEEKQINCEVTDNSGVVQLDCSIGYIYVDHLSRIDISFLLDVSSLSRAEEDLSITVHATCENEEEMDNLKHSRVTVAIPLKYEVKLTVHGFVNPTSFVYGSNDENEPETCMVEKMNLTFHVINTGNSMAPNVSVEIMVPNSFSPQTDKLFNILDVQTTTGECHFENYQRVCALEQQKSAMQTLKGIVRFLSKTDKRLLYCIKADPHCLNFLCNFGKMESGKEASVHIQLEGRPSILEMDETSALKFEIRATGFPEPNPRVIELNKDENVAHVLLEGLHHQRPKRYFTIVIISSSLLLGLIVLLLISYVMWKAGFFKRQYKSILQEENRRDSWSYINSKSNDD
T1 sequence (P05556 21-798): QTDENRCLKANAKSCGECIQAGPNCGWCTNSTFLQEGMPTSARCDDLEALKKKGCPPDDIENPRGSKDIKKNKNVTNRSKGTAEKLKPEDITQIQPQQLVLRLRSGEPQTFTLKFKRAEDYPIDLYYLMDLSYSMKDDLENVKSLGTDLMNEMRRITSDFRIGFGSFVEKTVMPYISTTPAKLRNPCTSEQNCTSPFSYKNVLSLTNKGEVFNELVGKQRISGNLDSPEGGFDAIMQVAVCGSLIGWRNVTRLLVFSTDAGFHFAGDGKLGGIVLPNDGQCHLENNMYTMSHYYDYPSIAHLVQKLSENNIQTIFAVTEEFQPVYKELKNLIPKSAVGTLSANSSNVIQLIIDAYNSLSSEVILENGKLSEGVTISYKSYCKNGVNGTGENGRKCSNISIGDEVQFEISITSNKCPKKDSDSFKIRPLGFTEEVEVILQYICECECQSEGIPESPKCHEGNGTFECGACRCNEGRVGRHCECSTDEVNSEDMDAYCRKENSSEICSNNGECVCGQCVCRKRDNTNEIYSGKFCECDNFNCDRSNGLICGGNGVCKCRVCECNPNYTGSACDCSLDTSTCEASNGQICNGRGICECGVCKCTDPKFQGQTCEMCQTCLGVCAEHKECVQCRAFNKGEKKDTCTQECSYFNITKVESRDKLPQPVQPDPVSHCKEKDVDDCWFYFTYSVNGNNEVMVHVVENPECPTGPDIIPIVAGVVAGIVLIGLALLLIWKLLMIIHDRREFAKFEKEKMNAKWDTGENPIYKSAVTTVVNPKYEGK

[2] = target: T1, α4β1 integrin; experiment: Bead-binding inhibition assay: soluble ligand inhibits binding of Jurkat cells to BIO-1211-containing beads; type: cell-based; details: for binding affinity for α4β1 integrin in the bead-binding inhibition assay: soluble ligand vs BIO-1211-containing beads, Jurkat cells
From the text: To this end, the bead library was screened using Jurkat cells in the presence of BIO-1211.
This library was screened using a competitive cell-based screening method with high stringency so that only those ligands with very high affinity to α4β1 integrin are coated by a layer of lymphoma cells (FIG. 2). To achieve this, an increasing amount of known α4β1 antagonist was incorporated into the screening solution, which competed with the interaction between cell surface α4β1 integrin and the immobilized library compounds on the bead surface, until a limited number of positive beads were detected in the library. […] Twenty beads were isolated under these high stringency conditions. Guanidine HCl (8 M) was used to strip the beads of all cells and proteins. The recovered beads were then retested with normal peripheral blood lymphocytes. Beads that bound preferentially to Jurkat cells but not to normal lymphocytes were sequenced. A total of twelve true positive beads were isolated and decoded, which represented 6 independent ligands. All of the identified ligands have the following structure:
The bead-binding inhibition assay was performed using the soluble ligand to inhibit the binding of Jurkat cells to the BIO-1211-containing beads.

[3] = Jurkat cell adhesion to CS-1 peptide, re-synthesized ligands of Tables 18 and 19, read-out: IC50

Cc1ccccc1NC(=O)Nc1ccc(CC(=O)N[C@@H](CCCCNC(=O)/C=C/c2cccnc2)C(=O)N[C@@H](CCCC(=O)O)C(=O)N[C@H](Cc2ccccc2)C(N)=O)cc1 [1A]
IC50 [1, 3]: 0.022 nM

Cc1ccccc1NC(=O)Nc1ccc(C(C)C(=O)N[C@@H](CCCCNC(=O)/C=C/c2cccnc2)C(=O)N[C@@H](CCCC(=O)O)C(=O)N[C@H](Cc2ccccc2)C(N)=O)cc1 (stereo partly drawn) [1B]
IC50 [1, 3]: 8.9 nM

Cc1ccccc1NC(=O)Nc1ccc(CC(=O)N[C@@H](CCCCNC(=O)/C=C/c2cccnc2)C(=O)N[C@@H](CCCC(=O)O)C(=O)NC2(C(N)=O)CCCCC2)cc1 [2A]
binding affinity for α4β1 integrin in the bead-binding inhibition assay [2]: highest binding affinities

Cc1ccccc1NC(=O)Nc1ccc(C(C)C(=O)N[C@@H](CCCCNC(=O)/C=C/c2cccnc2)C(=O)N[C@@H](CCCC(=O)O)C(=O)NC2(C(N)=O)CCCCC2)cc1 (stereo partly drawn) [2B]
IC50 [1, 3]: 9.5 nM

Cc1ccccc1NC(=O)Nc1ccc(CC(=O)N[C@@H](CCCCNC(=O)/C=C/c2cccnc2)C(=O)N[C@@H](CCCC(=O)O)C(=O)NC2(C(=O)N[C@H](CC(=O)O)C(N)=O)CC2)cc1 [3A] ({NH(2-Me-phenyl)-CO}-[X1]K(Acryloyl(3-(3-pyridyl),E))[Aad][Ac3c][dD]-NH2)
binding affinity for α4β1 integrin in the bead-binding inhibition assay [2]: highest binding affinities | IC50 [1]: 0.5 nM

Cc1ccccc1NC(=O)Nc1ccc(CC(=O)N[C@@H](CCCCNC(=O)/C=C/c2cccnc2)C(=O)N[C@@H](CCCC(=O)O)C(=O)N[C@H](Cc2ccccc2)C(=O)N[C@H](CC(=O)O)C(N)=O)cc1 [4A] ({NH(2-Me-phenyl)-CO}-[X1]K(Acryloyl(3-(3-pyridyl),E))[Aad][dF][dD]-NH2)
concentration inhibiting binding of Jurkat cells to BIO-1211-containing beads, compared with BIO-1211 ([2]; overnight incubation, FIG. 7): significantly lower concentration than BIO-1211 | binding affinity for α4β1 integrin in the bead-binding inhibition assay [2]: highest binding affinities | IC50 [1]: 0.4 nM

Cc1ccccc1NC(=O)Nc1ccc(CC(=O)N[C@@H](CCCCNC(=O)/C=C/c2cccnc2)C(=O)N[C@@H](CCCC(=O)O)C(=O)N[C@H](Cc2ccccc2)C(=O)N[C@H](Cc2cccnc2)C(N)=O)cc1 [7A] ({NH(2-Me-phenyl)-CO}-[X1]K(Acryloyl(3-(3-pyridyl),E))[Aad][dF][d3Pal]-NH2)
IC50 [1]: 4 nM

CCCC[C@H](NC(=O)Cc1ccc(NC(=O)Nc2ccccc2C)cc1)C(=O)N[C@@H](CCCC(=O)O)C(=O)N[C@@H](CC1CCCCC1)C(=O)N[C@H](CCC(=O)O)C(N)=O [8A] ({NH(2-Me-phenyl)-CO}-[X1][Nle][Aad][Cha][dE]-NH2)
IC50 [1]: 0.75 nM

CCCC[C@H](NC(=O)Cc1ccc(NC(=O)Nc2ccccc2C)cc1)C(=O)N[C@@H](CCCC(=O)O)C(=O)N[C@H](C(=O)N1C[C@H](O)C[C@H]1C(=O)N[C@@H](CCCC(=O)O)C(N)=O)C1CCCCC1 [9A] ({NH(2-Me-phenyl)-CO}-[X1][Nle][Aad][Chg][Hyp][Aad]-NH2)
IC50 [1]: 1.45 nM

Cc1ccccc1NC(=O)Nc1ccc(CC(=O)N[C@@H](CC2CC2)C(=O)N[C@@H](CCCC(=O)O)C(=O)N[C@H](C(=O)NC2(C(=O)N[C@H](CC(=O)O)C(=O)N[C@H](CCC(=O)O)C(N)=O)CCCC2)C2CCCCC2)cc1 [10A] ({NH(2-Me-phenyl)-CO}-[X1][Ala(cPr)][Aad][Chg][Ac5c][dD][dE]-NH2)
IC50 [1]: 0.53 nM

Cc1ccccc1NC(=O)Nc1ccc(CC(=O)N[C@@H](CCCCNC(=O)/C=C/c2cccnc2)C(=O)N[C@@H](CCCC(=O)O)C(=O)N[C@H](Cc2ccc3ccccc3c2)C(=O)N[C@@H](C(=O)N[C@H](Cc2ccc(C(=O)c3ccccc3)cc2)C(N)=O)[C@H](C)O)cc1 [11A] ({NH(2-Me-phenyl)-CO}-[X1]K(Acryloyl(3-(3-pyridyl),E))[Aad][d2Nal][dT][dBpa]-NH2)
IC50 [1]: 77.5 nM

Cc1ccccc1NC(=O)Nc1ccc(CC(=O)N[C@@H](CCCCNC(=O)/C=C/c2cccnc2)C(=O)N[C@@H](CCCC(=O)O)C(=O)N[C@H](Cc2ccccc2)C(=O)O)cc1 [12A]
IC50 [1, 3]: 0.4 nM

Cc1ccccc1NC(=O)Nc1ccc(CC(=O)N[C@@H](CCCCNC(=O)/C=C/c2cccnc2)C(=O)N[C@@H](CCCC(=O)O)C(=O)N[C@@H](Cc2ccccc2)C(N)=O)cc1 [14A]
IC50 [1]: 0.2 nM

Cc1ccccc1NC(=O)Nc1ccc(CC(=O)N[C@@H](CCCCNC(=O)/C=C/c2cccnc2)C(=O)N[C@@H](CCCC(=O)O)C(=O)N[C@H](C(N)=O)C(C)C)cc1 [15A]
IC50 [1, 3]: 0.2 nM

Cc1ccccc1NC(=O)Nc1ccc(CC(=O)N[C@@H](CCCCNC(=O)/C=C/c2cccnc2)C(=O)N[C@@H](CCCC(=O)O)C(=O)N[C@@H](C(N)=O)C(C)C)cc1 [16A]
IC50 [1, 3]: 0.2 nM
